Measured values from patent US6054437A, “Method for inducing death of neoplastic cells using piperazine derivatives” (Hitachi Chemical Research Center, Inc., priority 1997, dated 2000).
“Also recorded” adds a separate entry of the source. Counter-ions that a name gives are not always drawn. Where a SMILES comes first, the peptide text is derived from it. [ ]: non-standard residue; d: D form. Nle = CCCC[C@H](N)C(=O)O

Experiments:
cells = assay: Long-term assay (cell survival assay), toxicity to cells; assay type: cell-based; settings: long-term assays (cell survival assay)
Procedure: (§1) Cell survival was assayed in cultured tumor cells. From 500-1000 cells per well were plated in 24-welled culture dishes and exposed to drug for seven days. After drug exposure, a computerized cell imaging technique was utilized to ascertain the number of viable cells remaining in each culture. From the data, survival curves were plotted and a ED50 (drug concentration that permits 50% cell survival) were calculated.

[1] = test system: cancer cells having multidrug resistance; assay: Induction of cell death in cancer / multidrug-resistant cancer cells (comparison compounds); assay type: cell-based; settings: data omitted
Source text: The specifically defined present piperazine derivatives having epoxy groups are believed to work through an epoxide group, but E-64 also contains an epoxide group. […] It is believed that not only epoxy group but also a piperazine ring are essential to induction of cell death in cancer. […] Other compounds having similar structures to the present piperazine derivatives, with respect to piperazine rings when present, and epoxy groups, have been tested (data omitted here), but no significant effect was observed, meaning that surprising and unexpected effects on induction of cell death in cancer, i.e., reversing mdr and in inducing death of cancer cells without significant toxicity to normal tissues, which appear to be pharmacologically beyond prevention of metastasis in cancer, are found in the specifically defined present compounds.

[2] = test system: pancreatic cancer cell lines ASPC-1 and HS-766T; assay: Cancer cell death assay (LDH release), pancreatic lines; assay type: cell-based, human; settings: 25 μM, 24 hours
Procedure: (§2) Cell death was measured quantitatively by the release of a marker intracellular enzyme, lactate dehydrogenase (LDH), from damaged or killed cells. LDH released into the extracellular fluid, was measured 24 hours after drug exposure to cancer cells and the enzyme activity was determined by the method of Decker et al. (J. Immunolog Methods 15:61-99, 1988).
As described in Experiment 1, the cancer cell death assays were performed to measure anti-neoplastic activity of the compounds, NCO-700, TOP-001, TOP-003, TOP-005, TOP-006, TOP-008, TOP-009, TOP-010, TOP-012, TOP-013, TOP-015, and TOP-017.
The following cell lines were obtained from the American Type Tissue Culture Laboratory and cultured according to their specifications: Human pancreatic cancer cell lines ASPC-1 and HS-766T.
The results of the experiments are shown in FIG. 32, where a bar graph indicates the activity of a particular analog as measured by the % LDH release stimulated by each analog for 24 hours, with higher values of LDH released indicating greater anti-neoplastic activity (apoptosis). All analogs were tested at a concentration of 25 μM.

HS-578T (breast) [3] = assay: Cancer cell death assay (LDH release), HS-578T; assay type: cell-based, human; settings: for anti-neoplastic activity (LDH release) / potency compared to NCO-700: dose response (FIG. 7)
Procedure: (§3) 1. Cancer Cell Death Assay
as §2
A series of analogs related to NCO-700 were assayed in the cancer cell death assay. […] It should be stressed that these analogs were tested alone, without any added chemotherapeutic agent.
Based on Experiment 1 above, the anti-cancer activity of NCO-700, TOP-008, and analogs, TOP-201, 202, 203, 204, 205, 206, 207, and 007, was tested in cancer cell death assays of human cancer cell line HS-578T. In FIGS. 34 (1,000 cells/well) and 35 (1,500 cells/well), a bar graph indicates the activity of a particular analog as measured by the % LDH released (DMSO, dimethyl sulfoxide=control), with higher values of LDH released indicating greater anti-neoplastic activity. All analogs were tested at a concentration of 25 μM.

[4] = in vivo; cited from earlier work
[5] = test system: epidermoid carcinoma A431 cells; settings: cited from earlier work
colon cancer cell lines = assay: Cancer cell death assay (LDH release), colon lines; assay type: cell-based, human; settings: compound alone, 24 hours
Procedure: as §3, §2
(§4) All cell lines used in the present study were obtained from the American Type Tissue Culture Laboratory and cultured according to their specifications. All were human cancer lines unless otherwise noted. The following cell lines and their tissue of origin used in our studies were:
(§5) The first assays performed measured the anti-neoplastic activity of NCO-700, alone, in cell death assays of a wide variety of human cancer cells. The results of these experiments are shown in FIGS. 1-6, where a dose-response curve of NCO-700 versus % LDH release is plotted, with higher values of LDH released indicating greater anti-neoplastic activity (apoptosis).
(§6) In FIG. 8, a dose-response curve is shown of the effect of TOP-008 on the killing of breast, prostate and colon cell lines.

HS-578T (breast) [6] = assay: Apoptosis detection assay (annexin V / propidium iodide, flow cytometry); assay type: cell-based, human; settings: 50 μM and 25 μM (FIG. 36)
Procedure: Anti-neoplastic activity of TOP-008 was tested using a commercially available kit, Apoptosis Detection Kit, from R & D SYSTEMS (Minnesota) in which annexin V, a member of the calcum and phospholipid binding proteins, is used to detect apoptosis, following the protocol recommended by the manufacturer. TOP-008 was tested at a concentration of 50 μM, using Human breast cancer cell line HS-578T. Cells were washed in cold PBS twice and resuspended in a small volume of 1× binding buffer. Fluorescein-labeled annexin V and propidium iodide were added to the cells. The cells expressing phosphatidylserine on the outer leaflet of cell membranes bind annexin V and cells with a compromised cell membrane allow propidium iodide to bind to the cellular DNA. The resulting cells when immediately analyzed by flow cytometry can present three potential populations of cells: live cells which will not stain with either fluorochrome, necrotic cells which will stain with both fluorochrome, and cells undergoing apoptosis which will stain only with the annexin V-FITC reagent. Analysis was performed on cytometers equipped with a single laser emitting excitation light at 488 nm. The annexin V-FITC-generated signal was detected in the FITC signal detector (FL1). The results are shown in FIG. 36 in which the […]. […]

cancer cell lines = assay: Cancer cell survival assay, a number of cancer cell lines; assay type: cell-based, human; settings: FIGS. 26-31, alone
Procedure: as §1
(§7) FIGS. 26-31 show the effect of increasing the dose of TOP-008 against a number of cancer cell lines. […] For example, if the activity of NCO-700 and TOP-008 are compared against the human colon cancer cell line WIDR (FIG. 16 in Experiment 1 versus FIG. 31) it is seen that the effective dose of TOP-008 is much lower in this particular assay.

[7] = test system: prostate cancer cell lines; assay: Cancer cell death assay (LDH release), prostate lines; assay type: cell-based, human; settings: compound alone, 24 hours
Procedure: as §3, §2, §4, §5, §6

WIDR (colon) = assay: Cancer cell survival assay, WIDR; assay type: cell-based, human; settings: FIG. 16 versus FIG. 31
Procedure: as §1
The cancer cell survival assay is an important additional in vitro assay to assess the anti-neoplastic activity of compounds as the cells are given a prolonged exposure (seven days) to the drug. FIGS. 9-16 show the effect of increasing the dose of NCO-700 on the survival of a number of cancer cell lines. […] In the figures, the vertical axis is the object area, which is the number of surviving cancer cells calculated by a computer.
as §7

[8] = test system: PC-3 (prostate tumor cell line); assay: Apoptosis induced DNA fragmentation (agarose gel); assay type: cell-based, human; settings: PC-3, 25 μM, 48 hours
Procedure: PC-3, a prostate tumor cell line, was treated with 25 μM TOP-008, 50 μM NCO-700, or water for 48 hours. The DNA from each sample was purified by phenol extraction, and the fragmentation was resolved on an agarose gel.

breast cancer cell lines = assay: Cancer cell death assay (LDH release), breast lines; assay type: cell-based, human; settings: compound alone, 24 hours
Procedure: as §3, §2, §4, §5, §6

With `CCCC[C@@H](C=O)NC(=O)[C@H](CC(C)C)NC(=O)[C@H](CC(C)C)NC(C)=O` [Calpain Inhibitor 1, N-acetyl-leu-leu-norleucinal] (Ac-Leu-Leu-[Nle]-aldehyde) the “toxicity to the cells” value (cells) was “toxic to the cells”, the “toxicity to the cells” value (cells; listed as Calpain inhibitor I) was “its toxicity may be an obstacle” and the “effectiveness in cancer cells having multidrug resistance / induction of cell death” value [1] was “slightly effective”.
For `CC(C)C[C@H](NC(=O)[C@H]1O[C@@H]1C(=O)O)C(=O)NCCCCN=C(N)N` [E-64], the “effectiveness in cancer cells having multidrug resistance / induction of cell death” value [1] was “not to be particularly effective in cancer cells having multidrug resistance”.
With `CC(C)C[C@H](NC(=O)[C@@H]1O[C@H]1C(=O)OCc1ccccc1)C(=O)N1CCN(C/C=C/c2ccccc2)CC1` [TOP-009, Bis[benzyl (2R,3R)-3-[(S)-3-methyl-1-[4-(3-phenyl-2-propenyl)piperazin-1-ylcarbonyl]butylcarbamoyl]oxirane-2-carboxylate] Sulfate] the “anti-neoplastic activity (% LDH release) compared with NCO-700” value [2] was “significantly greater activity than NCO-700 itself” and the “anti-neoplastic activity (LDH release) / potency compared to NCO-700” value (HS-578T (breast) [3]; HS-578T, alone) was “higher potency”.
In the case of `COc1cccc2c1C(=O)c1c(O)c3c(c(O)c1C2=O)C[C@@](O)(C(=O)CO)C[C@@H]3O[C@H]1C[C@H](N)[C@H](O)[C@H](C)O1` [adriamycin], the side effects [4] is given as “inevitable side effects such as hair loss, weight loss, and liver and kidney damage”.
With `CC(C)C[C@H](NC(=O)[C@@H]1O[C@H]1C(=O)Oc1ccccc1)C(=O)N1CCN(C/C=C/c2ccccc2)CC1` [TOP-013, Bis[phenyl (2R,3R)-3-[(S)-3-methyl-1-[4-(3-phenyl-2-propenyl)piperazin-1-ylcarbonyl]butylcarbamoyl]oxirane-2-carboxylate] Sulfate] the “anti-neoplastic activity (LDH release) / potency compared to NCO-700” value (HS-578T (breast) [3]; HS-578T, alone) was “higher potency”.
For `CCOC(=O)[C@H]1O[C@@H]1C(=O)N[C@@H](CC(C)C)C(=O)NCCC(C)C` [E-64-d], the cell cycle arrest ([5]; A431 cells, chemically defined medium) is given as “arrested at mitotic metaphase” and the “effect on growth of cancer cells” value ([5]; Shoji-Kasai et al.) is given as “slows the growth of cancer cells”.
For `CCOC(=O)[C@@H]1O[C@H]1C(=O)N[C@@H](CC(C)C)C(=O)N1CCN(C/C=C/c2ccccc2)CC1` [TOP-008, Bis[ethyl (2R,3R)-3-[(S)-3-methyl-1-[4-(3-phenyl-2-propenyl)piperazin-1-ylcarbonyl]butylcarbamoyl]oxirane-2-carboxylate] Sulfate], the “anti-neoplastic activity (% LDH release) compared with NCO-700” value [2] was “significantly greater activity than NCO-700 itself”, the “anti-neoplastic activity (LDH release)” value (colon cancer cell lines) was “excellent activity” and the induction of apoptosis (HS-578T (breast) [6]) was “induced apoptosis in human breast cancer cells”. The “anti-neoplastic activity (cell survival)” value (cancer cell lines) was “highly active anti-neoplastic agent (apoptosis agent) and in some cases is much more active than NCO-700”, the “anti-neoplastic activity (LDH release)” value [7] was “excellent activity” and the “effective dose compared with NCO-700” value (WIDR (colon)) was “much lower”. The DNA fragmentation [8] was “significant DNA fragmentation”, the “anti-neoplastic activity (LDH release)” value (breast cancer cell lines) was “excellent activity” and the “anti-neoplastic activity (% LDH released)” value (HS-578T (breast) [3]; HS-578T, 25 μM, 1,000 and 1,500 cells/well (FIGS. 34, 35)) was “very good anti-neoplastic activity”. For the same compound, the “kill rate of breast cancer cells relative to NCO-700” value (HS-578T (breast) [3]; HS-578T, alone) was “approximately three-fold”, the “anti-neoplastic activity (LDH release) / potency compared to NCO-700” value (HS-578T (breast) [3]; HS-578T, alone) was “higher potency; also recorded: highest potency” and the “anti-neoplastic potency relative to NCO-700” value (HS-578T (breast) [3]; conclusion of Experiment 1) was “three-fold”.
